Values of other authors as cited in paper PMC12032770 (Journal of Experimental & Clinical Cancer Research : CR, 2025).

Test system: αvβ3 and αvβ5 integrin receptors
Conditions: at low doses
Excerpt: The αvβ3 and αvβ5 integrin receptors are strongly overexpressed on proangiogenic endothelial cells, including those that form tumor-associated blood vessels in GBM, and inhibitors targeting these integrins, such as the cyclic peptide cilengitide (CIL), act as anti-angiogenic agents.

cilengitide
effect on tumor vasculature: vascular normalization
